Literature values, collected in patent publication US12539302B2, “Methods and compositions for the treatment of hair loss” (Aneira Pharma, Inc., priority 2019, dated 2026).
Read-outs that look alike come from different tables or passages of the source. One block for each compound: values may come before it.

Experiments:
[1] = propylene glycol, methanol, ethanol and 2-propanol
hair growth [2] = test system: hair growth
hair growth [3] = conditions: McCarey et al. 2004
[4] = test system: elevated intraocular pressure model of glaucoma; conditions: Gagliuso et al. 2004
[5] = test system: elevated intraocular pressure; conditions: patients non-responsive to latanoprost, Gandolfi 2003
[6] = test system: dihydrotestosterone (DHT) production; conditions: oral; including prostate gland and scalp
human FP receptors [7] = molecular target: T1, human FP receptors (Homo sapiens, UniProt P43088); conditions: FP receptor agonist
T1 sequence (P43088 whole entry): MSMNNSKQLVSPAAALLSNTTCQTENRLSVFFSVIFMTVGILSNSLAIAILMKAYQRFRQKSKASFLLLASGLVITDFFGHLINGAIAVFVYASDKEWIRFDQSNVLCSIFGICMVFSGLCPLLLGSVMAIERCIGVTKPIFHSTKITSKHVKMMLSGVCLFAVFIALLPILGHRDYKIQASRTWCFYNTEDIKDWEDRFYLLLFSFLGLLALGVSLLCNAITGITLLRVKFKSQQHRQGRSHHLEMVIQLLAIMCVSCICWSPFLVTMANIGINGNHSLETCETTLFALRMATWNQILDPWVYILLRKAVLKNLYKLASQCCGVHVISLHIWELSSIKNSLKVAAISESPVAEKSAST

human FP receptors [8] = molecular target: T1, human FP receptors

time stable (acidic or basic aqueous solutions): no more than 48 hours | time stable (neutral aqueous solutions, room temperature): stable for up to one month | solubility, highest concentration that can be used [1]: ≥ 5%
Compound: CC(C)OC(=O)CCC/C=C\C[C@@H]1[C@@H](CC[C@@H](O)CCc2ccccc2)[C@H](O)C[C@@H]1O [latanoprost, Latanoprost]

Compound: Nc1cc(N2CCCCC2)nc(N)[n+]1OS(=O)(=O)[O-] [minoxidil sulphate]
potency as hair growth agent compared to minoxidil (hair growth [2]): much more potent

Compound: CCCCCCCC(=O)CC[C@@H]1[C@@H](C/C=C\CCCC(=O)OC(C)C)[C@@H](O)C[C@H]1O [Uenoprostone isopropyl ester, Unoprostone isopropyl ester]
hair growth (hair growth [3]): cause no hair growth

Compound: CCNC(=O)CCC/C=C\C[C@@H]1[C@@H](/C=C/[C@@H](O)CCc2ccccc2)[C@H](O)C[C@@H]1O [bimatoprost, Bimatoprost]
effect on elevated intraocular pressure in combination [4]: additive to that of latanoprost | response in reducing elevated intraocular pressure [5]: responsive

Compound: CC(C)(C)NC(=O)[C@H]1CC[C@H]2[C@@H]3CC[C@H]4NC(=O)C=C[C@]4(C)[C@H]3CC[C@]12C [finasteride, (1S,3aS,3bS,5aR,9aR,9bS,11aS)-N-tert-butyl-9a,11a-dimethyl-7-oxo-1,2,3,3a,3b,4,5,5a,6,9b,10,11-dodecahydroindeno[5,4-f]quinoline-1-carboxamide]
decrease of DHT production [6]: about 70%

potency relative to PGF2α (human FP receptors [7]): twice the potency | potency as FP receptor ligand relative to latanoprost (human FP receptors [8]): two-hundred times more potent
Compound: O=C(O)CCC/C=C\C[C@@H]1[C@@H](CC[C@@H](O)CCc2ccccc2)[C@H](O)C[C@@H]1O [Latanoprost free acid, Latanoprost acid]

Compound: CCCCCCCC(=O)CC[C@@H]1[C@@H](C/C=C\CCCC(=O)O)[C@@H](O)C[C@H]1O [uenoprostone free acid]
hair growth (hair growth [3]): cause no hair growth
